According to PubChem BioAssay AID1053150 (Broad Institute, 2014):

System: HepG2 13C-glycerol triglyceride synthesis, LC-MS, 24 h
Assay: inhibition of triglyceride synthesis rate, late-stage follow-up, mechanism study for Trib1 inducer project, cell-based, HepG2, LC-MS, 13C-glycerol labeling, cherry-pick (AID 1053150)
Details: stronger effect = higher value; dose or concentration not given here

CN1C(=O)c2cc(NC(=O)c3ccc(C(F)(F)F)cc3)ccc2OC[C@@H]2O[C@H](CC(=O)NC3Cc4ccccc4C3)CC[C@@H]21
TAG formation rate inhibition: 2%
